Results reported in PubChem BioAssay (NCI).
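Briefly, cells in 96-well plates were exposed to five compound concentrations for 48 h, and endpoints were estimated by linear interpolation. GI50 = concentration required for 50% inhibition of growth. TGI is the concentration that stops growth completely.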

Assays:
Experiment in all cases: DTP human tumour cell line panel, 48 h; in the data active = GI50 below about 0.43 µM; inactive = the rest
TK-10 renal = system: TK-10 renal
BT-549 breast = system: BT-549 breast
NCI-H226 lung = system: NCI-H226 lung
CCRF-CEM leukemia = system: CCRF-CEM leukemia
SF-295 CNS = system: SF-295 CNS
A549 NSCLC = system: A549 NSCLC
COLO 205 colon = system: COLO 205 colon
NCI-H522 lung = system: NCI-H522 lung
LOX IMVI melanoma = system: LOX IMVI melanoma
SF-268 CNS = system: SF-268 CNS
ACHN renal = system: ACHN renal
U251 CNS = system: U251 CNS
NCI/ADR-RES ovarian = system: NCI/ADR-RES ovarian
SR leukemia = system: SR leukemia
SW-620 colon = system: SW-620 colon
MOLT-4 leukemia = system: MOLT-4 leukemia
MALME-3M melanoma = system: MALME-3M melanoma
HCT-15 colon = system: HCT-15 colon
SNB-19 CNS = system: SNB-19 CNS
HT29 colon = system: HT29 colon
SK-MEL-28 melanoma = system: SK-MEL-28 melanoma
HL-60(TB) leukemia = system: HL-60(TB) leukemia
IGROV1 ovarian = system: IGROV1 ovarian
MCF7 breast = system: MCF7 breast
NCI-H460 lung = system: NCI-H460 lung
MDA-MB-231 breast = system: MDA-MB-231 breast
PC-3 prostate = system: PC-3 prostate
UACC-257 melanoma = system: UACC-257 melanoma
OVCAR-3 ovarian = system: OVCAR-3 ovarian
SK-OV-3 ovarian = system: SK-OV-3 ovarian
NCI-H23 lung = system: NCI-H23 lung
SK-MEL-5 melanoma = system: SK-MEL-5 melanoma
HS 578T breast = system: HS 578T breast
RPMI-8226 leukemia = system: RPMI-8226 leukemia
K-562 leukemia = system: K-562 leukemia
UO-31 renal = system: UO-31 renal
KM12 colon = system: KM12 colon
SK-MEL-2 melanoma = system: SK-MEL-2 melanoma
HOP-62 NSCLC = system: HOP-62 NSCLC
OVCAR-8 ovarian = system: OVCAR-8 ovarian
786-0 renal = system: 786-0 renal
UACC-62 melanoma = system: UACC-62 melanoma
RXF 393 renal = system: RXF 393 renal
DU-145 prostate = system: DU-145 prostate
OVCAR-4 ovarian = system: OVCAR-4 ovarian
A498 renal = system: A498 renal
SF-539 CNS = system: SF-539 CNS
CAKI-1 renal = system: CAKI-1 renal
EKVX NSCLC = system: EKVX NSCLC
HCC-2998 colon = system: HCC-2998 colon
SN12C renal = system: SN12C renal
M14 melanoma = system: M14 melanoma
T-47D breast = system: T-47D breast
MDA-MB-435 = system: MDA-MB-435
HCT-116 colon = system: HCT-116 colon
OVCAR-5 ovarian = system: OVCAR-5 ovarian
SNB-75 CNS = system: SNB-75 CNS

COc1cc(Oc2cnc3cc(N)cc(N)c3n2)cc(OC)c1OC
63.4 µM: TGI (ACHN renal)
76.2 µM: TGI (M14 melanoma)
72.4 µM: TGI (SNB-75 CNS)
> 100 µM: TGI (TK-10 renal) | TGI (BT-549 breast) | TGI (NCI-H226 lung) | TGI (CCRF-CEM leukemia) | TGI (SF-295 CNS) | TGI (A549 NSCLC) | TGI (NCI-H522 lung) | TGI (LOX IMVI melanoma) | TGI (SF-268 CNS) | TGI (U251 CNS) | TGI (NCI/ADR-RES ovarian) | TGI (SW-620 colon) | TGI (MALME-3M melanoma) | TGI (HCT-15 colon) | TGI (SNB-19 CNS) | TGI (SK-MEL-28 melanoma) | TGI (IGROV1 ovarian) | TGI (MCF7 breast) | TGI (NCI-H460 lung) | TGI (PC-3 prostate) | TGI (UACC-257 melanoma) | TGI (OVCAR-3 ovarian) | TGI (SK-OV-3 ovarian) | TGI (NCI-H23 lung) | TGI (SK-MEL-5 melanoma) | TGI (HS 578T breast) | TGI (K-562 leukemia) | TGI (UO-31 renal) | TGI (KM12 colon) | TGI (SK-MEL-2 melanoma) | TGI (HOP-62 NSCLC) | TGI (OVCAR-8 ovarian) | TGI (786-0 renal) | TGI (UACC-62 melanoma) | TGI (DU-145 prostate) | TGI (OVCAR-4 ovarian) | TGI (A498 renal) | TGI (SF-539 CNS) | TGI (CAKI-1 renal) | TGI (EKVX NSCLC) | TGI (SN12C renal) | TGI (T-47D breast)
71.6 µM: TGI (COLO 205 colon)
51.9 µM: TGI (MOLT-4 leukemia)
42.8 µM: TGI (HCT-116 colon)
95.8 µM: TGI (MDA-MB-231 breast)
62.6 µM: TGI (OVCAR-5 ovarian)
89.8 µM: TGI (RXF 393 renal)
59.1 µM: TGI (MDA-MB-435)
40.4 µM: TGI (HT29 colon)
45 µM: TGI (HL-60(TB) leukemia) | TGI (RPMI-8226 leukemia)
37.2 µM: TGI (SR leukemia)
32.2 µM: TGI (HCC-2998 colon)
inactive: GI50 (TK-10 renal) 33.3 µM | GI50 (BT-549 breast) 43.5 µM | GI50 (NCI-H226 lung) 45.6 µM | GI50 (CCRF-CEM leukemia) 50.7 µM | GI50 (SF-295 CNS) 74.4 µM | GI50 (A549 NSCLC) > 100 µM | GI50 (COLO 205 colon) 27.8 µM | GI50 (NCI-H522 lung) > 100 µM | GI50 (LOX IMVI melanoma) 33.4 µM | GI50 (SF-268 CNS) 67.3 µM | GI50 (ACHN renal) 24.3 µM | GI50 (U251 CNS) > 100 µM | GI50 (NCI/ADR-RES ovarian) 30.6 µM | GI50 (SR leukemia) 14 µM | GI50 (SW-620 colon) 44.3 µM | GI50 (MOLT-4 leukemia) 20.2 µM | GI50 (MALME-3M melanoma) 59.9 µM | GI50 (HCT-15 colon) 50 µM | GI50 (SNB-19 CNS) > 100 µM | GI50 (HT29 colon) 18.5 µM | GI50 (SK-MEL-28 melanoma) 36.6 µM | GI50 (HL-60(TB) leukemia) 21.9 µM | GI50 (IGROV1 ovarian) 32.8 µM | GI50 (MCF7 breast) 35.4 µM | GI50 (NCI-H460 lung) 52 µM | GI50 (MDA-MB-231 breast) 29.4 µM | GI50 (PC-3 prostate) 32.4 µM | GI50 (UACC-257 melanoma) > 100 µM | GI50 (OVCAR-3 ovarian) 26.8 µM | GI50 (SK-OV-3 ovarian) 91.2 µM | GI50 (NCI-H23 lung) 31.4 µM | GI50 (SK-MEL-5 melanoma) 39.5 µM | GI50 (HS 578T breast) 37.9 µM | GI50 (RPMI-8226 leukemia) 21.9 µM | GI50 (K-562 leukemia) 38.1 µM | GI50 (UO-31 renal) 35 µM | GI50 (KM12 colon) 24.9 µM | GI50 (SK-MEL-2 melanoma) > 100 µM | GI50 (HOP-62 NSCLC) 48.1 µM | GI50 (OVCAR-8 ovarian) 58.8 µM | GI50 (786-0 renal) 33 µM | GI50 (UACC-62 melanoma) 35.4 µM | GI50 (RXF 393 renal) 25.4 µM | GI50 (DU-145 prostate) 62.3 µM | GI50 (OVCAR-4 ovarian) 37.3 µM | GI50 (A498 renal) 65.1 µM | GI50 (SF-539 CNS) 46.2 µM | GI50 (CAKI-1 renal) 38.2 µM | GI50 (EKVX NSCLC) 61.4 µM | GI50 (HCC-2998 colon) 15.6 µM | GI50 (SN12C renal) 71.2 µM | GI50 (M14 melanoma) 22.7 µM | GI50 (T-47D breast) 33.5 µM | GI50 (MDA-MB-435) 24.3 µM | GI50 (HCT-116 colon) 19.6 µM | GI50 (OVCAR-5 ovarian) 23 µM | GI50 (SNB-75 CNS) 19.2 µM
